Values of other authors, collected in PMC6311893, “Computational prediction of plasma protein binding of cyclic peptides from small molecule experimental data using sparse modeling techniques” (BMC Bioinformatics, 2018).
Where two headings read alike, the source gives them in different places. Positions of bridges follow the written chain, without caps; N, C: chain ends. Non-standard residues stand in square brackets, D forms with d. Residues, ends and D or L forms follow the SMILES beside them. *: point of attachment. Octanoyl(6-Me) = CCC(C)CCCCC(=O)*; Dab = NCC[CH](N)C(=O)O

Tested on: plasma protein
Details: cited from earlier work
[1] = fraction bound to plasma protein, small molecule dataset, sheet 1-SM (Set Dte = test, Dtr = training), ref Ingle et al.
[2] = fraction bound to plasma protein, small molecule dataset, sheet 1-SM, ref Ingle et al.
[3] = fraction bound to plasma protein, small molecule dataset, sheet 1-SM, Set Dtr, ref Ingle et al.

For `CN(C)CC/C=C1/c2ccccc2Sc2ccc(Cl)cc21` [chlorprothixene], the “PPB (fb)” value [1] is listed as 0.99.
For `O=C(NCCNCC(O)COc1ccc(O)cc1)N1CCOCC1` (centres unmarked) [Xamoterol], the “PPB (fb)” value [2] is given as 0.03.
In the case of `S=P(N1CC1)(N1CC1)N1CC1` [Thiotepa], the “PPB (fb)” value [2] is listed as 0.1.
For `CN1CCN(CCCN2c3ccccc3Sc3ccc(C(F)(F)F)cc32)CC1` [trifluoperazine], the “PPB (fb)” value [3] is listed as 0.99.
For `COC(=O)[C@@H]1CC2=CC(=O)CC[C@]2(C)[C@@]23O[C@@H]2C[C@@]2(C)[C@@H](CC[C@@]24CCC(=O)O4)[C@H]13` [eplerenone], the “PPB (fb)” value [2] is listed as 0.46.
In the case of `CC(C)(O)c1ccccc1CC[C@@H](SCC1(CC(=O)O)CC1)c1cccc(/C=C/c2ccc3ccc(Cl)cc3n2)c1` [Montelukast], the “PPB (fb)” value [1] is given as 0.99.
For `CN(C)CCCN1c2ccccc2CCc2ccccc21` [Imipramine], the “PPB (fb)” value [3] is given as 0.9.
In the case of `Nc1nc(/C(=N/O)C(=O)N[C@@H]2C(=O)N3C(C(=O)O)=C(/C=C4\CCN([C@@H]5CCNC5)C4=O)CS[C@H]23)ns1` [Ceftobiprole], the “PPB (fb)” value [3] is listed as 0.38.
In the case of `CNC1(c2ccccc2Cl)CCCCC1=O` (centres unmarked) [Ketamine], the “PPB (fb)” value (plasma) is listed as 0.44.
For `O=P1(N(CCCl)CCCl)NCCCO1` (centres unmarked) [Cyclophosphamide], the “PPB (fb)” value (plasma) is given as 0.15.
In the case of `C=C1C[C@@H]2[C@H](CC[C@]3(C)C(=O)CC[C@@H]23)[C@@]2(C)C=CC(=O)C=C12` [exemestane], the “PPB (fb)” value [2] is given as 0.9.
For `CCC(C)CCCCC(=O)NC(CCN)C(=O)NC(C(=O)NC(CCN)C(=O)NC1CCNC(=O)C(C(C)O)NC(=O)C(CCN)NC(=O)C(CCN)NC(=O)C(CC(C)C)NC(=O)C(Cc2ccccc2)NC(=O)C(CCN)NC1=O)C(C)O` (centres unmarked) [polymyxin-B] ({Octanoyl(6-Me)}-[Dab]T[Dab][Dab][Dab]FL[Dab][Dab]T; lactam 4-C; configuration not given here), the “PPB (fb)” value (human, plasma) is listed as 0.1.
In the case of `CCOC(=O)c1c(CSc2ccccc2)n(C)c2cc(Br)c(O)c(CN(C)C)c12` [arbidol], the “PPB (fb)” value [1] is given as 0.91.
In the case of `NCCCCCC(=O)O` [Aminohexanoic acid], the “PPB (fb)” value [3] is listed as 0.08.
For `CC(Oc1ccc(F)cc1)C(=O)NC1C(=O)N2C1SC(C)(C)C2C(=O)O` (centres unmarked) [penicillin62], the “PPB (fb)” value [2] is listed as 0.8.
For `COc1ccc2cc1Oc1cc3c(cc1OC)CC[N+](C)(C)[C@H]3Cc1ccc(cc1)Oc1c(OC)c(OC)cc3c1[C@@H](C2)[N+](C)(C)CC3` [Metocurine], the “PPB (fb)” value (plasma) is listed as 0.35.
In the case of `C[C@@H]1C[C@H]2[C@@H]3CCC4=CC(=O)C=C[C@]4(C)[C@@]3(F)[C@@H](O)C[C@]2(C)[C@@]1(O)C(=O)CO` [Dexamethasone], the “PPB (fb)” value [3] is given as 0.68.
In the case of `Cc1ccc2ccccc2c1C(=O)NC1C(=O)N2C1SC(C)(C)C2C(=O)O` (centres unmarked) [penicillin66], the “PPB (fb)” value [2] is given as 0.82.
For `CN(CCOc1ccc(CC2SC(=O)NC2=O)cc1)c1ccccn1` (centres unmarked) [Rosiglitazone], the “PPB (fb)” value [2] is given as 0.99.
In the case of `CCOc1nc2cccc(C(=O)OC(C)OC(=O)OC3CCCCC3)c2n1Cc1ccc(-c2ccccc2-c2nnn[nH]2)cc1` (centres unmarked) [Candesartan cilexetil], the “PPB (fb)” value [1] is given as 0.99.
In the case of `CO[C@H]1/C=C/O[C@@]2(C)Oc3c(C)c(O)c4c(O)c(c(/C=N/N5CCN(C6CCCC6)CC5)c(O)c4c3C2=O)NC(=O)/C(C)=C\C=C\[C@H](C)[C@H](O)[C@@H](C)[C@@H](O)[C@@H](C)[C@H](OC(C)=O)[C@@H]1C` [Rifapentine], the “PPB (fb)” value [2] is given as 0.93.
For `C[C@@H](O[C@H]1OCCN(Cc2n[nH]c(=O)[nH]2)[C@H]1c1ccc(F)cc1)c1cc(C(F)(F)F)cc(C(F)(F)F)c1` [Aprepitant], the “PPB (fb)” value [3] is listed as 0.95.
In the case of `COc1ccc(C(=O)N2CCCC2=O)cc1` [aniracetam], the “PPB (fb)” value [1] is listed as 0.66.
In the case of `CCS(=O)(=O)CCn1c([N+](=O)[O-])cnc1C` [Tinidazole], the “PPB (fb)” value [2] is given as 0.15.
For `C[C@@H](c1ncncc1F)[C@](O)(Cn1cncn1)c1ccc(F)cc1F` [Voriconazole], the “PPB (fb)” value [2] is listed as 0.58.
For `COc1ccc2[nH]c([S+]([O-])Cc3ncc(C)c(OC)c3C)nc2c1` (centres unmarked) [Omeprazole], the “PPB (fb)” value [1] is given as 0.96.
For `COc1cc(CC2c3c(cc(OC)c(OC)c3OC)CC[N+]2(C)CCCOC(=O)CCC(=O)OCCC[N+]2(C)CCc3cc(OC)c(OC)c(OC)c3C2Cc2cc(OC)c(OC)c(OC)c2)cc(OC)c1OC` (centres unmarked) [Doxacurium], the “PPB (fb)” value (plasma) is given as 0.39.
In the case of `CCCCC(=O)N(Cc1ccc(-c2ccccc2-c2nnn[nH]2)cc1)[C@H](C(=O)O)C(C)C` [Valsartan], the “PPB (fb)” value [2] is listed as 0.95.
For `CC1(C)SC2C(NC(=O)C(NC(=O)c3ccc(S(N)(=O)=O)cc3)c3ccccc3)C(=O)N2C1C(=O)O` (centres unmarked) [penicillin35], the “PPB (fb)” value [2] is listed as 0.42.
For `O=C1NCCN1c1ncc([N+](=O)[O-])s1` [niridazole], the “PPB (fb)” value [1] is listed as 0.85.
In the case of Rolitetracycline, the “PPB (fb)” value (plasma) is given as 0.5.
For `CC(C)(Oc1ccc(C2CC2(Cl)Cl)cc1)C(=O)O` (centres unmarked) [ciprofibrate], the “PPB (fb)” value [1] is given as 0.95.
In the case of `Cc1cc(C)nc(NS(=O)(=O)c2ccc(N)cc2)n1` [sulfadimidine], the “PPB (fb)” value [1] is given as 0.85.
In the case of `OCC(CO)N[C@H]1C[C@](O)(CO)[C@@H](O)[C@H](O)[C@H]1O` [voglibose], the “PPB (fb)” value [3] is given as 0.14.
In the case of `CC1(C)S[C@@H]2[C@H](NC(=O)C(c3ccccc3)S(=O)(=O)O)C(=O)N2[C@H]1C(=O)O` (some centres unmarked) [Sulbenicillin], the “PPB (fb)” value [1] is given as 0.5.
For `CCCOC(C(=O)OC1CCN(C)CC1)(c1ccccc1)c1ccccc1` [propiverine], the “PPB (fb)” value [2] is listed as 0.9.
For `COc1ccc(-n2cc(C(=O)O)c(=O)c3cc(F)c(N4CCN(C)CC4)cc32)cc1` [5ca (p-OCH3__N-CH3)], the “PPB (fb)” value [1] is given as 0.43.
In the case of `Cc1ccccc1OCC(O)CNCCOc1ccc(C(N)=O)cc1` (centres unmarked) [Tolamolol], the “PPB (fb)” value [2] is given as 0.91.
For Atovaquone, the “PPB (fb)” value (plasma) is listed as 1.
For `CN(Cc1cnc2nc(N)nc(N)c2n1)c1ccc(C(=O)N[C@@H](CCC(=O)O)C(=O)O)cc1` [Methotrexate], the “PPB (fb)” value [3] is given as 0.58.
For `CCCCCOC(=O)Nc1nc(=O)n([C@@H]2O[C@H](C)[C@@H](O)[C@H]2O)cc1F` [capecitabine], the “PPB (fb)” value [1] is listed as 0.3.
In the case of lymecycline, the “PPB (fb)” value (plasma) is listed as 0.45.
In the case of `Cc1ccc(-c2ncc(Cl)cc2-c2ccc(S(C)(=O)=O)cc2)cn1` [Etoricoxib], the “PPB (fb)” value [3] is listed as 0.92.
For `COC(=O)[C@H](c1ccccc1Cl)N1CCc2sccc2C1` [clopidogrel], the “PPB (fb)” value [1] is listed as 0.98.
In the case of `Cc1nnc(NS(=O)(=O)c2ccc(N)cc2)s1` [sulfamethizole], the “PPB (fb)” value [2] is given as 0.9.
For `O=C(O)[C@H]1O[C@@H](Oc2cc3oc(-c4ccc(O)cc4)cc(=O)c3c(O)c2O)[C@H](O)[C@@H](O)[C@@H]1O` [scutellarin], the “PPB (fb)” value is listed as 0.82.
In the case of `O=c1[nH]cnc2c1ncn2[C@H]1CC[C@@H](CO)O1` [Didanosine], the “PPB (fb)” value [3] is given as 0.04.
For `CC(=O)O[C@H]1C[C@@]2(C)[C@@H](C[C@@H](O)[C@H]3[C@@]4(C)CC[C@@H](O)[C@@H](C)[C@@H]4CC[C@@]32C)/C1=C(\CCC=C(C)C)C(=O)O` [fusidic acid], the “PPB (fb)” value [2] is listed as 0.95.
For `CCCCN1C[C@H](O)[C@@H](O)[C@H](O)[C@H]1CO` [Miglustat], the “PPB (fb)” value [2] is listed as 0.01.
For `CC(=O)OC1C(O)CC(OC2C(O)CC(OC3C(O)CC(OC4CCC5(C)C(CCC6C5CC(O)C5(C)C(C7=CC(=O)OC7)CCC65O)C4)OC3C)OC2C)OC1C` (stereo not drawn) [beta-acetyldigoxin], the “PPB (fb)” value (plasma) is listed as 0.15.
In the case of `C=C1/C(=C\C=C2/CCC[C@]3(C)[C@@H]([C@H](C)CCCC(C)(C)O)CC[C@@H]23)C[C@@H](O)C[C@@H]1O` [calcitriol], the “PPB (fb)” value is given as 0.95.
For `OC(Cn1cncn1)(Cn1cncn1)c1ccc(F)cc1F` [Fluconazole], the “PPB (fb)” value [3] is given as 0.16.
In the case of `Cc1ccc(-c2cc(C(F)(F)F)nn2-c2ccc(S(N)(=O)=O)cc2)cc1` [celecoxib], the “PPB (fb)” value [1] is given as 0.97.
In the case of `CCCC(C)(COC(N)=O)COC(N)=O` [Meprobamate], the “PPB (fb)” value (plasma) is given as 0.1.
For `CCCCC(OCC)C(=O)NC1C(=O)N2C1SC(C)(C)C2C(=O)O` (centres unmarked) [penicillin10], the “PPB (fb)” value [2] is listed as 0.74.
For `COc1cccc(-n2cc(C(=O)O)c(=O)c3cc(F)c(N4CCNCC4)cc32)c1` [5b(m-OCH3)], the “PPB (fb)” value [1] is listed as 0.35.
For `CCN1CCCC1CNC(=O)c1cc(S(=O)(=O)CC)c(N)cc1OC` (centres unmarked) [amisulpride], the “PPB (fb)” value [1] is listed as 0.16.
In the case of `COc1cc(OC)c(C(=O)CCCN2CCCC2)c(OC)c1` [Buflomedil], the “PPB (fb)” value [3] is given as 0.6.
In the case of `COCC(=O)NC1C(=O)N2C1SC(C)(C)C2C(=O)O` (centres unmarked) [penicillin5], the “PPB (fb)” value [2] is listed as 0.07.
In the case of `CN1CCC(=C2c3ccccc3CCc3sccc32)CC1` [pizotyline], the “PPB (fb)” value [1] is listed as 0.91.
In the case of `CC(=O)OCC1=C(C(=O)O)N2C(=O)[C@@H](NC(=O)CSc3ccncc3)[C@H]2SC1` [Cephapirin], the “PPB (fb)” value [3] is listed as 0.53.
For `COc1c(Cl)ccc(Cl)c1C(=O)O` [Dicamba], the “PPB (fb)” value [3] is given as 0.9.
For `[H]/N=C(/N)N/C(=N/[H])NCCc1ccccc1` [phenformin], the “PPB (fb)” value [2] is given as 0.16.
In the case of `Cc1nc(NS(=O)(=O)c2ccc(N)cc2)oc1C` [sulfamoxole], the “PPB (fb)” value [2] is listed as 0.7.
In the case of `CCN[C@@H](C)Cc1cccc(C(F)(F)F)c1` [Dexfenfluramine], the “PPB (fb)” value (plasma) is listed as 0.34.
In the case of `CC(N/C(=N\C#N)Nc1ccncc1)C(C)(C)C` (centres unmarked) [pinacidil], the “PPB (fb)” value [1] is listed as 0.4.
In the case of `C[C@H](O)C(=O)Nc1c(I)c(C(=O)NC(CO)CO)c(I)c(C(=O)NC(CO)CO)c1I` [Iopamidol], the “PPB (fb)” value [3] is listed as 0.
In the case of `COC(=O)Nc1nc2ccccc2[nH]1` [carbendazim], the “PPB (fb)” value (plasma) is given as 0.67.
For `Cc1[nH]cnc1CN1CCc2c(c3ccccc3n2C)C1=O` [Alosetron], the “PPB (fb)” value [3] is given as 0.72.
For `C#C[C@]1(O)CC[C@H]2[C@@H]3CCC4=CCCC[C@@H]4[C@H]3C(=C)C[C@@]21CC` [desogestrel], the “PPB (fb)” value [1] is given as 0.98.
In the case of Brotizolam, the “PPB (fb)” value (plasma) is listed as 0.9.
